PubChem BioAssay (NCI)
Several values for one entry are separate records, joined by “and”; a condition that tells them apart may be missing. Equal entries are not always repeated.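 Five compound concentrations were applied to cells in 96-well plates for 48 hours; endpoints were derived by simple linear interpolation of the resulting dose-response curve. GI50: concentration for 50% inhibition of growth. TGI: total growth inhibition.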

Assays:
Assay in all cases: growth of human tumour cells (NCI), 48 h
MDA-MB-435 = tested on: MDA-MB-435
SF-539 CNS = tested on: SF-539 CNS
NCI-H23 lung = tested on: NCI-H23 lung
A549 NSCLC = tested on: A549 NSCLC
PC-3 prostate = tested on: PC-3 prostate
SN12C renal = tested on: SN12C renal
SK-OV-3 ovarian = tested on: SK-OV-3 ovarian
NCI-H226 lung = tested on: NCI-H226 lung

Row | Compound | GI50 (MDA-MB-435) | TGI (MDA-MB-435) | GI50 (SF-539 CNS) | TGI (SF-539 CNS) | GI50 (NCI-H23 lung) | TGI (NCI-H23 lung) | GI50 (A549 NSCLC) | TGI (A549 NSCLC) | GI50 (PC-3 prostate) | TGI (PC-3 prostate) | GI50 (SN12C renal) | TGI (SN12C renal) | TGI (SK-OV-3 ovarian) | GI50 (NCI-H226 lung) | TGI (NCI-H226 lung) | GI50 (SK-OV-3 ovarian)
1 | OC(c1cccc(-n2ccc(C(F)(F)F)n2)c1)c1cnccc1NC1CCCCCC1 (stereo not given) | 1.73 µM | 3.14 µM | 1.69 µM | 3.1 µM | 1.74 µM | 3.2 µM | 1.81 µM | 3.56 µM | 1.59 µM | 3.09 µM | 1.69 µM | 3.2 µM |  |  |  | 
2 | Cc1ccc(S(=O)(=O)OC2CCN(C)CC2)cc1 |  | > 100 µM |  | > 100 µM |  | > 100 µM |  | > 100 µM |  | > 100 µM |  | > 100 µM | > 100 µM |  |  | 
3 | CC(C)[C@]12O[C@H]1[C@@H]1O[C@]13[C@]1(O[C@H]1C[C@H]1C4=C(CC[C@@]13C)C(=O)OC4)[C@@H]2O | 0.0122 µM | 0.0214 µM and 0.0296 µM | 0.0146 µM | 0.026 µM and 0.0358 µM |  | 0.0156 µM | 0.0276 µM and 0.0246 µM | > 100 µM |  |  |  |  | > 100 µM | < 0.011 µM | 0.0731 µM and 0.12 µM | 
4 | CC1(C)N=C(N)N=C(N)N1c1cccc(CCCCc2cccc(S(=O)(=O)F)c2)c1 | 0.329 µM | 29 µM | 0.773 µM | 18.8 µM | 2.39 µM | > 100 µM | 0.751 µM | > 100 µM | 0.157 µM | > 100 µM | 0.571 µM | > 100 µM | > 100 µM | 8.93 µM | > 100 µM | 10.9 µM
5 | COc1ccc2[nH]c(=O)c3c4ccccc4cn3c2c1 | 0.154 µM | 0.411 µM | 0.657 µM | 2.53 µM | 0.639 µM | 6.59 µM | 0.554 µM | 2.77 µM | 0.429 µM | 4.08 µM | 0.6 µM | 7.17 µM | 11.5 µM | 3.47 µM | 18 µM | 0.451 µM
6 | CCN(CC)CCOCC[C@H]1CC[C@H]2[C@@H]3[C@H](C)Cc4cc(OS(N)(=O)=O)ccc4[C@H]3CC[C@]12C |  |  | 0.654 µM | 1.87 µM | 1.06 µM | 2.92 µM | 1.8 µM | 5.58 µM | 1.57 µM | 4.48 µM | 1.19 µM | 2.86 µM | 3.2 µM |  |  | 1.49 µM
7 | COc1ccc(-c2cc(-c3cc(Cl)ccc3Cl)nc3n[nH]c(N)c23)cc1 | 2.65 µM | 6.94 µM | 25.2 µM | 59 µM | 36.9 µM | > 100 µM | 28.8 µM | > 100 µM | 35.9 µM | > 100 µM | 32.7 µM | > 100 µM | > 100 µM | 63.4 µM | > 100 µM | 34.5 µM
8 | CCOC(=O)c1ccc2[nH]c(-c3ccc(S(=O)(=O)F)cc3)cc(=O)c2c1 |  | > 100 µM |  | > 100 µM |  | 47 µM |  | > 100 µM |  | > 100 µM |  | > 100 µM | > 100 µM |  | > 100 µM | 
9 | CC[C@]12CCCN3CCc4c(n(c5ccccc45)C(=O)C1)[C@@H]32 |  | 4.41 µM |  | > 51.9 µM |  | > 100 µM |  | > 100 µM |  | > 100 µM |  | > 100 µM | 87.7 µM |  | > 100 µM | 
10 | COc1cc(C2c3[nH]c4ccccc4c3C[C@H]3COC(=O)N23)cc(OC)c1OC (stereo not given in full) |  | 0.0494 µM | < 0.01 µM |  | < 0.01 µM |  | 0.0233 µM | > 100 µM | < 0.01 µM |  | 0.0471 µM | > 100 µM |  |  | 0.902 µM | 
11 | COc1ccc2oc(=O)cc(C(c3ccc[nH]3)c3ccc[nH]3)c2c1 | 0.208 µM | 0.485 µM | 0.0937 µM | 0.451 µM | 0.11 µM | 14 µM | 0.118 µM | 10.8 µM | 0.108 µM | 15.5 µM | 0.148 µM | 15.8 µM |  | 0.146 µM | 24.4 µM | 
12 | O=[N+]([O-])c1ccc(S(=O)(=O)Cc2ccccc2)c([N+](=O)[O-])c1 |  | 3.34 µM |  | 3.8 µM |  | 3.52 µM |  | 33.3 µM |  | 3.45 µM |  |  | 13.2 µM |  | 43.3 µM | 
13 | COc1cccc(C2c3cc4c(cc3OC(C)(N3CCCC3)C2C)OCO4)c1OC (stereo not given) |  | 49.3 µM |  |  |  | 44.6 µM |  | 35.8 µM |  | 41.2 µM |  | 41.6 µM | 69.6 µM |  | 58.5 µM | 
14 | Cc1nc(-c2cccc(Nc3nc(-c4ccc(Cl)cc4)cs3)c2)cs1 | 10.4 µM | 27.4 µM |  |  | 1.27 µM | 10.9 µM | 8.9 µM | 24.7 µM | 8.96 µM | 21.2 µM | 9.3 µM | 17.1 µM | 25.4 µM |  |  | 11.9 µM
15 | CN(Cc1cnc2nc(N)nc(N)c2n1)c1ccc(C(=O)NC(CCC(=O)O)C(=O)O)cc1C(F)(F)F (stereo not given) |  | > 100 µM |  | > 100 µM |  | > 100 µM |  | > 100 µM |  | > 100 µM |  |  | > 100 µM |  | > 89 µM | 
16 | FC(F)(F)Oc1cccc(-c2cnc3ccc(-c4ccncc4)nn23)c1 | 2.11 µM | 48.9 µM | 1.13 µM | 7.4 µM | 1.96 µM | 17.4 µM | 1.12 µM | 9.22 µM |  |  | 1.56 µM | > 100 µM | 2.11 µM |  |  | 0.392 µM
17 | Cc1ccc2c(c1)C(C)Cc1c(ncnc1-n1cnc3ccccc31)N2C (stereo not given) |  |  | 0.337 µM | 13.5 µM | 0.727 µM | 18 µM | 0.973 µM | 17.3 µM | 0.284 µM | 36.4 µM | 0.915 µM | 21.9 µM | 13.5 µM | 3.5 µM | 27.4 µM | 0.475 µM
18 | COc1ccccc1NC(=O)c1sc2nc3c(cc2c1N)C(=O)CCC3 | 0.295 µM | 1.58 µM | 3.97 µM | > 100 µM | 16.8 µM | > 100 µM | 2.11 µM | > 100 µM |  |  | > 100 µM | > 100 µM | > 100 µM | 4.87 µM | > 100 µM | 3.59 µM
19 | O=C1C(Cl)=C(Nc2cccc(Cl)c2)C(=O)N1Cc1ccccc1 | 2.26 µM | 7.17 µM |  |  | 5.94 µM | 23.4 µM | 16.1 µM | 39.9 µM | 3.52 µM | 20.1 µM | 11.2 µM | 25.1 µM | 35 µM | 10.5 µM | 29.3 µM | 15.7 µM
